From ChEMBL document CHEMBL3774306, “Bisimidazoline arylamides binding to the DNA minor groove: N1-hydroxylation enhances binding affinity and selectivity to AATT sites” (Medchemcomm, 2015)
Calls of active or inactive are those of the source. No cut-off for these calls is given here.

Experiments:
[1] = organism: Homo sapiens; assay: Ratio of primary binding constant to secondary binding constant for biotin labelled 5'-CGAATTCGTCTCCGAATTCG-3' hairpin dsDNA (unknown origin) immobilized on biosensor chip by surface plasmon resonance analysis
[2] = Binding affinity to biotin labelled 5'-CATATATATCCCCATATATATG-3' hairpin dsDNA (unknown origin) immobilized on biosensor chip by surface plasmon resonance analysis; design: species or system Homo sapiens
[3] = Binding affinity to biotin labelled 5'-CGCGCGCGTTTTCGCGCGCG-3' hairpin dsDNA (unknown origin) immobilized on biosensor chip by surface plasmon resonance analysis; design: species or system Homo sapiens
[4] = organism: Homo sapiens; assay: Ratio of primary binding constant to secondary binding constant for biotin labelled 5'-CATATATATCCCCATATATATG-3' hairpin dsDNA (unknown origin) immobilized on biosensor chip by surface plasmon resonance analysis
[5] = Binding affinity to biotin labelled 5'-CGAATTCGTCTCCGAATTCG-3' hairpin dsDNA (unknown origin) immobilized on biosensor chip by surface plasmon resonance analysis; design: species or system Homo sapiens
[6] = organism: Homo sapiens; assay: Binding affinity to CGAATTCG dsDNA (unknown origin) assessed as isosbestic point at 2.5 uM by UV-vis spectrophotometry
[7] = organism: Homo sapiens; assay: Binding affinity to CATATATAT dsDNA (unknown origin) assessed as isosbestic point at 2.5 uM by UV-vis spectrophotometry
[8] = organism: Homo sapiens; assay: Binding affinity to GAATAATCGCGATTATTC dsDNA (39 bp) (unknown origin) assessed as slow binding constant
[9] = organism: Homo sapiens; assay: Binding affinity to GAATAATCGCGATTATTC dsDNA (39 bp) (unknown origin) assessed as long lasting constant
[10] = organism: Homo sapiens; assay: Binding affinity to CGCGCGCG dsDNA (unknown origin) assessed as isosbestic point at 2.5 uM by UV-vis spectrophotometry
[11] = organism: Homo sapiens; assay: Selectivity ratio of Kd for biotin labelled 5'-CATATATATCCCCATATATATG-3' hairpin dsDNA (unknown origin) to Kd for biotin labelled 5'-CGAATTCGTCTCCGAATTCG-3' hairpin dsDNA (unknown origin)
[12] = Binding affinity to fish sperm DNA assessed as hypochromicity change at 30 uM by UV-vis spectrophotometry relative to control; settings: Hyperoartia
[13] = Binding affinity to biotin labelled 5'-CATATATATCCCCATATATATG-3' hairpin dsDNA (unknown origin) immobilized on streptavidin-derivatized gold chip incubated for 5 mins followed by dissociation period of 5 mins by surface plasmon resonance analysis; design: species or system Homo sapiens
[14] = organism: Homo sapiens; assay: Selectivity ratio of Kd for biotin labelled 5'-CGCGCGCGTTTTCGCGCGCG-3' hairpin dsDNA (unknown origin) to Kd for biotin labelled 5'-CATATATATCCCCATATATATG-3' hairpin dsDNA (unknown origin)
[15] = organism: Homo sapiens; assay: Binding affinity to CATATATAT dsDNA (unknown origin) assessed as spectral changes at 2.5 uM by UV-vis spectrophotometry
[16] = organism: Homo sapiens; assay: Binding affinity to CGAATTCG dsDNA (unknown origin) assessed as spectral changes at 2.5 uM by UV-vis spectrophotometry
[17] = organism: Homo sapiens; assay: Binding affinity to CGCGCGCG dsDNA (unknown origin) assessed as spectral changes at 2.5 uM by UV-vis spectrophotometry

Row | SMILES | Ratio [1] | Kd [2] | Kd ([3]; read-out: Kd) | Ratio [4] | Kd [5] | Activity [12] | other results
1 | c1cc(NC2=NCCN2)ccc1CCc1ccc(NC2=NCCN2)cc1 | 5 | 4.35 µM | 19.6 µM | 5 | 2.78 µM |  | 
2 | [O-][N+]1=C(Nc2ccc(Nc3cccc(NC4=[N+]([O-])CCN4)c3)cc2)NCC1 | 100 | 1.79 µM | 66.7 µM | 100 | 0.568 µM |  | Activity [6]: 325 nm; Activity [7]: 335 nm; K [8]: 38 M⁻¹ s⁻¹; K [9]: 0.00265 s⁻¹; Activity [10]: inactive
3 | CC/N=C(\N)Nc1ccc(NC(=O)Nc2ccc(N/C(N)=N/CC)cc2)cc1 |  | > 29 µM |  |  | > 29 µM |  | Kd [3]: Not Active
4 | CO[N+]1=C(Nc2ccc(NC(=O)c3ccc(NC4=[N+](OC)CCN4)cc3)cc2)NCC1 | 100 | 0.351 µM | > 10 µM | 100 | 0.256 µM | 9% | Selectivity ratio [11]: 1.5
5 | [O-][N+]1=C(Nc2ccc(CCc3ccc(NC4=[N+]([O-])CCN4)cc3)cc2)NCC1 | 30 | 4 µM | 76.9 µM | 30 | 0.87 µM | 9% | 
6 | CC(C)/N=C(\N)Nc1ccc(NC(=O)c2ccc(N/C(N)=N/C(C)C)cc2)cc1 |  |  | > 10 µM |  |  |  | 
7 | CC/N=C(\N)Nc1ccc(NC(=O)c2ccc(N/C(N)=N/CC)cc2)cc1 |  |  | > 10 µM |  |  |  | 
8 | N=C(N)Nc1ccc(NC(=O)c2ccc(NC(=N)N)cc2)cc1 |  |  | > 10 µM |  |  |  | 
9 | c1cc(NC2=NCCN2)cc(Nc2ccc(NC3=NCCN3)cc2)c1 | 100 |  |  | 100 | 2.7 µM |  | Kd [13]: 2.17 µM; Kd [3]: Not Active
10 | O=C(Nc1ccc(NC2=NCCN2)cc1)Nc1ccc(NC2=NCCN2)cc1 | 100 | 8.06 µM | 159 µM | 100 | 11.6 µM |  | Selectivity ratio [14]: 10
11 | CCO[N+]1=C(Nc2ccc(CCc3ccc(NC4=[N+](OCC)CCN4)cc3)cc2)NCC1 | 100 | > 29 µM | > 29 µM | 100 | > 29 µM | 9% | 
12 | O=C(Nc1ccc(NC2=NCCN2)cc1)c1ccc(NC2=NCCN2)cc1 | 100 | 0.307 µM | > 10 µM | 100 | 0.166 µM |  | Selectivity ratio [11]: 1.5
13 | O=C(Nc1ccc(NC2=[N+]([O-])CCN2)cc1)c1ccc(NC2=[N+]([O-])CCN2)cc1 | 100 | 0.273 µM | 18.5 µM | 100 | 0.077 µM | 9% | Selectivity ratio [11]: 3.5; Activity [15]: Active; Activity [16]: Active; Activity [17]: Active
